Results published in US11052026B2, “Multi-capsule containing pigment for cosmetic material or functional component, and method for producing same” (CHEMLAND. CO., LTD., priority 2017, dated 2021).

Experiment: Residual rate of functional component during storage at 35° C. for 16 weeks (Example 1)
Format: physicochemical
Settings: stored at 35° C.
Procedure: The residual rates of the functional components were compared while the cosmetic functional multi-capsule in Preparation Example 3 was stored at 35° C.

| Ascorbic Acid Residual Rate (storage period 2 weeks) | Ascorbic Acid Residual Rate (storage period 4 weeks) | Ascorbic Acid Residual Rate (storage period 6 weeks) | Ascorbic Acid Residual Rate (storage period 8 weeks) | Ascorbic Acid Residual Rate (storage period 10 weeks) | Ascorbic Acid Residual Rate (storage period 12 weeks) | Ascorbic Acid Residual Rate (storage period 14 weeks) | Ascorbic Acid Residual Rate (storage period 16 weeks) | Functional Component Residual Rate (storage period 2 weeks) | Functional Component Residual Rate (storage period 4 weeks) | Functional Component Residual Rate (storage period 6 weeks) | Functional Component Residual Rate (storage period 8 weeks) | Functional Component Residual Rate (storage period 10 weeks) | Functional Component Residual Rate (storage period 12 weeks) | Functional Component Residual Rate (storage period 14 weeks) | Functional Component Residual Rate (storage period 16 weeks) | Compound |
| --- | --- | --- | --- | --- | --- | --- | --- | --- | --- | --- | --- | --- | --- | --- | --- | --- |
| 97.2% | 95.3% | 92.9% | 90% | 88.4% | 81.2% | 76.3% | 70.5% |  |  |  |  |  |  |  |  | O=C1O[C@H]([C@@H](O)CO)C(O)=C1O [compound 1, ascorbic acid] |
|  |  |  |  |  |  |  |  | 97.2% | 94.5% | 91.8% | 88.8% | 86.5% | 78.5% | 74.5% | 69.5% | anthocyanin [compound 2] |
